{"source": "patent US20060281736A1", "about": "“Product comprising at least one phosphatase cdc25 inhibitor combined with at least one other anticancer agent” (priority 2003, published 2006)", "key": {"[1]": {"system": "HT-29 cell line (human colon cancer cells)", "test": "Test of cell proliferation of the HT-29 cells (WST1), products individually or in combination", "type": "cell-based", "settings": "120 hours", "method": "A) Test of Cell Proliferation of the HT-29 Cells\nThe protocol for the test used to obtain the results shown is described below:\nThe HT-29 cell line (human colon cancer cells) were acquired from the American Tissue Culture Collection (Rockville, Md., USA).\nThe HT-29 cells (2000 cells/well) are cultured in 96-well plates. On day 0, these cells are seeded in 90 μl of Dulbecco's modified Eagle medium (Gibco-Brl, Cergy-Pontoise, France) completed with 10% foetal calf serum inactived by heating (Gibco-Brl, Cergy-Pontoise, France), 50000 units/l of penicillin and 50 mg/l streptomycin (Gibco-Brl, Cergy-Pontoise, France), and 2 mM of glutamine (Gibco-Brl, Cergy-Pontoise, France).\nThe cells were treated simultaneously with concentrations of two products individually or in combination on Day 1 and for 120 hours.\nAt the end of the of this period (D6), quantification of cell proliferation is evaluated by a colorimetric test based on the cleavage of the tetrazolium salt WST1 by mitochondrial dehydrogenases in living cells leading to the formation of formazan (Boehringer Mannheim, Meylan, France). These tests are carried out at least in duplicate with 4 determinations for each individual product and for each combination tested. This allows determination of the number of living cells at the end of each treatment."}, "[2]": {"system": "DU145 (human prostate cancer cells)", "test": "Antiproliferative activity on DU145 cells (WST1)", "type": "cell-based", "settings": "DU-145, 96 hours treatment, read-out: IC50 on the cell proliferation of DU-145 lines", "method": "(§1) ii) Characterization of the Antiproliferative Activity:\nBy way of example, the effect of a treatment on two human cell lines Mia-Paca2 and DU145 with the compounds of the examples described previously will be studied. The cell lines DU145 (human prostate cancer cells) and Mia-PaCa2 (human pancreas cancer cells) were acquired from the American Tissue Culture Collection (Rockville, Md., USA). The cells placed in 80 μl of Dulbecco's Modified Eagle's medium (Gibco-Brl, Cergy-Pontoise, France) completed with 10% foetal calf serum inactivated by heating (Gibco-Brl, Cergy-Pontoise, France), 50,000 units/l of penicillin and 50 mg/l of streptomycin (Gibco-Brl, Cergy-Pontoise, France), and 2 mM of glutamine (Gibco-Brl, Cergy-Pontoise, France) were seeded on a 96-well plate on day 0. The cells were treated on day 1 for 96 hours with increasing concentrations of each of the compounds to be tested up to 10 μM. At the end of this period, quantification of cell proliferation is evaluated by a colorimetric test based on the cleavage of the tetrazolium salt WST1 by the mitochondrial dehydrogenases in viable cells leading to the formation of formazan (Boehringer Mannheim, Meylan, France). These tests are carried out in duplicate with 8 determinations per concentration tested. […]"}, "[3]": {"system": "Mia-PaCa2 (human pancreas cancer cells)", "test": "Antiproliferative activity on Mia-Paca2 cells (WST1)", "type": "cell-based", "settings": "MIA PaCa-2, 96 hours treatment, read-out: IC50 on the cell proliferation of Mia-Paca2 lines", "method": "as §1\nBy way of example, the effect of a treatment on two human cell lines Mia-Paca2 and DU145 with the compounds of the examples described previously will be studied. The cell lines DU145 (human prostate cancer cells) and Mia-PaCa2 (human pancreas cancer cells) were acquired from the American Tissue Culture Collection (Rockville, Md., USA). The cells placed in 80 μl of Dulbecco's Modified Eagle's medium (Gibco-Brl, Cergy-Pontoise, France) completed with 10% foetal calf serum inactivated by heating (Gibco-Brl, Cergy-Pontoise, France), 50,000 units/l of penicillin and 50 mg/l of streptomycin (Gibco-Brl, Cergy-Pontoise, France), and 2 mM of glutamine (Gibco-Brl, Cergy-Pontoise, France) were seeded on a 96-well plate on day 0. The cells were treated on day 1 for 96 hours with increasing concentrations of each of the compounds to be tested up to 10 μM. At the end of this period, quantification of cell proliferation is evaluated by a colorimetric test based on the cleavage of the tetrazolium salt WST1 by the mitochondrial dehydrogenases in viable cells leading to the formation of formazan (Boehringer Mannheim, Meylan, France). These tests are carried out in duplicate with 8 determinations per concentration tested. For each compound to be tested, the values included in the linear part of the sigmoid were retained for a linear regression analysis and used to estimate the inhibitory concentration IC50. The products are solubilized in dimethylsulphoxide (DMSO) at 10^−2 M and finally used in culture with 0.1% DMSO."}, "[4]": {"test": "Stability in the form of a powder", "type": "physicochemical", "settings": "compound and its salts"}}, "data": [{"compound": "CC[C@@]1(O)CC(=O)OCc2c1cc1n(c2=O)Cc2c-1nc1cc(Cl)c(C)cc1c2CN1CCC(C)CC1.Cl", "note": "[Compound B13, (+)-9-chloro-5-ethyl-5-hydroxy-10-methyl-12-(4-methylpiperidinomethyl)-4,5,13,15-tetrahydro-1H,3H-oxepino[3′,4′:6,7]indolizino[1,2-c]quinoline-3,15-dione hydrochloride]", "values": [{"measurement": "% of surviving cells", "setting": "[1]; Combination 13: Compound B13 (10^−9 M) individually", "value": 91, "unit": "%"}]}, {"compound": "CO[C@@]12[C@H](COC(N)=O)C3=C(C(=O)C(C)=C(N)C3=O)N1C[C@@H]1N[C@@H]12", "note": "[Compound B2, mitomycin C]", "values": [{"measurement": "% of surviving cells", "setting": "[1]; Combination 2: Compound B2 (10^−7 M) individually", "value": 49, "unit": "%"}, {"measurement": "% of surviving cells", "setting": "[1]; Combination 25: Compound B2 (5 × 10^−8 M) individually", "value": 82, "unit": "%"}, {"measurement": "% of surviving cells", "setting": "[1]; Combination 32: Compound B2 (5 × 10^−8 M) individually", "value": 88, "unit": "%"}, {"measurement": "% of surviving cells", "setting": "[1]; Combination 33: Compound B2 (5 × 10^−8 M) individually", "value": 88, "unit": "%"}]}, {"compound": "CCCNC1=CC(=O)c2sc(C)nc2C1=O", "note": "[Example 11, 2-methyl-5-(propylamino)-1,3-benzothiazole-4,7-dione]", "values": [{"measurement": "IC50", "setting": "[2]", "value": "≤ 10", "unit": "µM"}, {"measurement": "IC50", "setting": "[3]", "value": "≤ 10", "unit": "µM"}]}, {"compound": "CN(Cc1cnc2nc(N)nc(N)c2n1)c1ccc(C(=O)N[C@@H](CCC(=O)O)C(=O)O)cc1", "note": "[Compound B5, methotrexate]", "values": [{"measurement": "% of surviving cells", "setting": "[1]; Combination 5: Compound B5 (5 × 10^−8 M) individually", "value": 83, "unit": "%"}]}, {"compound": "4-(2-bromophenyl)-1-(2-(1-((4-cyano-3-methoxy)phenylmethyl)imidazo-5-yl)-1-oxoethyl)-1,2-dihydro-8-fluoroimidazo[1,2a][1,4]-benzodiazepine [Compound B7]", "values": [{"measurement": "% of surviving cells", "setting": "[1]; Combination 7: Compound B7 (10^−5 M) individually", "value": 92, "unit": "%"}]}, {"compound": "N[C@@H](CSSC[C@H](N)C(=O)N1CCn2cc(-c3ccccc3)nc2[C@@H]1CC1CCCCC1)C(=O)N1CCn2cc(-c3ccccc3)nc2[C@@H]1CC1CCCCC1", "note": "[(1R)-1-[({(2R)-2-amino-3-[(8S)-8-(cyclohexylmethyl)-2-phenyl-5,6-dihydroimidazo[1,2-a]pyrazin-7(8H)-yl]-3-oxopropyl}dithio)methyl]-2-[(8)-8-(cyclohexylmethyl)-2-phenyl-5,6-dihydroimidazo[1,2-a]pyrazin-7(8H)-yl]-2-oxoethylamine]", "values": [{"measurement": "in vivo toxicity data", "setting": "In vivo toxicity", "value": "excellent"}, {"measurement": "stability in the form of a powder", "setting": "[4]", "value": "particularly stable"}]}, {"compound": "CCc1nc2c(o1)C(=O)C(C)=C(NCCN(C)C)C2=O", "note": "[Example 55, 5-{[2-(dimethylamino)ethyl]amino}-2-ethyl-6-methyl-1,3-benzoxazole-4,7-dione]", "values": [{"measurement": "melting point", "value": 135, "unit": "°C"}, {"measurement": "IC50", "setting": "[3]", "value": "≤ 10", "unit": "µM"}]}, {"compound": "N.N.[Cl][Pt][Cl]", "note": "[Compound B4, cisplatin]", "values": [{"measurement": "% of surviving cells", "setting": "[1]; Combination 4: Compound B4 (10^−5 M) individually", "value": 33, "unit": "%"}, {"measurement": "% of surviving cells", "setting": "[1]; Combination 28: Compound B4 (10^−5 M) individually", "value": 75, "unit": "%"}, {"measurement": "% of surviving cells", "setting": "[1]; Combination 35: Compound B4 (10^−5 M) individually", "value": 85, "unit": "%"}]}, {"compound": "CCc1c2c(nc3ccc(O)cc13)-c1cc3c(c(=O)n1C2)COC(=O)[C@]3(O)CC", "note": "[Compound B11, SN-38]", "values": [{"measurement": "% of surviving cells", "setting": "[1]; Combination 11: Compound B11 (5 × 10^−9 M) individually", "value": 98, "unit": "%"}, {"measurement": "% of surviving cells", "setting": "[1]; Combination 24: Compound B11 (10^−8 M) individually", "value": 73, "unit": "%"}, {"measurement": "% of surviving cells", "setting": "[1]; Combination 30: Compound B11 (10^−8 M) individually", "value": 67, "unit": "%"}]}]}
